Read-outs that look alike come from different tables or passages of the source.

From US10138207B2, “Benzomorphan analogs and the use thereof” (priority 2012, dated 2018) come the findings set out here.

For assay [1], the target named is T1, μ-opioid receptor (Homo sapiens, UniProt P35372). The experiment in a line: μ-opioid receptor [35S]GTPγS functional assay, HEK-293 or CHO cells.
In assay [2] the target is T1, μ-opioid receptor. The experiment in a line: μ-opioid receptor [35S]GTPγS functional assay, U-2 OS cells. It counts as biochemical. The arrangement: expressed in transfected cells; host or cells: U-2 OS. The conditions noted are these: for Emax / GTPγS μ Emax: relative to DAMGO.
The next assay addresses κ opioid receptor (Homo sapiens, UniProt P41145). The experiment in a line: κ-opioid receptor [35S]GTPγS functional assay, U-2 OS cells. It counts as biochemical. The arrangement: expressed in transfected cells; host or cells: U-2 OS (in-house membranes). The conditions noted are these: for Emax: read-out: GTPγS κ Emax.
Where [3] appears, read: U-2 OS cells, read-out: GTPγS μ EC50.
Where [4] appears, read: U-2 OS cells, read-out: GTPγS μ Emax.
The mark [5] stands for this setting: U-2 OS cells, read-out: GTPγS κ EC50.
Where [6] appears, read: U-2 OS cells, bound in μM, read-out: GTPγS μ EC50.
[7] abbreviates: U-2 OS cells, bound in μM, read-out: GTPγS κ EC50.
[8] abbreviates: U-2 OS cells, relative to U69,593.

T1 sequence (P35372 whole entry, species assumed): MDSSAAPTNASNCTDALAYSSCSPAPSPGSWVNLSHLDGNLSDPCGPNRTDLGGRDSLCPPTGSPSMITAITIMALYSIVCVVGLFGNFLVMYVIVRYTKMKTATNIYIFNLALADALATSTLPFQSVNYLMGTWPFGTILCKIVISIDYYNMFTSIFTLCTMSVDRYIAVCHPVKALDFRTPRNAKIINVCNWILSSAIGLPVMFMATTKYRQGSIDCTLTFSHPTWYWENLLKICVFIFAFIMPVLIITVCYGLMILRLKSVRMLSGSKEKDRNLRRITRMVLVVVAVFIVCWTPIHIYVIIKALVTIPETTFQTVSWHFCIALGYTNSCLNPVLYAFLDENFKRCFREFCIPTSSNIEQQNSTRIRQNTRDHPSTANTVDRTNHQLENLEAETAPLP
κ opioid receptor, sequence (P41145 whole entry): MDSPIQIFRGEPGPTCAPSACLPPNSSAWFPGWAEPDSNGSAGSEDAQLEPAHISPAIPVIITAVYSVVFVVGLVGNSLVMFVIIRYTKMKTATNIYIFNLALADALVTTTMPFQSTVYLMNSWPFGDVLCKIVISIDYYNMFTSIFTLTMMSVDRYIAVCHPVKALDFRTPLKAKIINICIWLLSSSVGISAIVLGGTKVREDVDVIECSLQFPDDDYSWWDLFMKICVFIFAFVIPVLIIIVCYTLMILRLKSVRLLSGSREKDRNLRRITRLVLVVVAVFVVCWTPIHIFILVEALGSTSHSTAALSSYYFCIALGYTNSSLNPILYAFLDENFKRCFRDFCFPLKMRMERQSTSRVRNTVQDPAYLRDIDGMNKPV
Description for κ opioid receptor: Membranes from recombinant HEK-293 cells, CHO or U-2 OS cells expressing the recombinant human κ opioid receptor (κ) were prepared by lysing cells in ice cold hypotonic buffer (2.5 mM MgCl2, 50 mM HEPES, pH 7.4) (10 mL/10 cm dish) followed by homogenization with a tissue grinder/Teflon pestle. […] Membranes were collected by centrifugation at 30,000×g for 15 min at 4° C. and pellets were resuspended in hypotonic buffer to a final concentration of 1-3 mg/mL. Protein concentrations were determined using the BioRad protein assay reagent with bovine serum albumen as standard. Aliquots of κ receptor membranes were stored at −80° C.
Plates were incubated for 30 min at a temperature of about 25° C. with shaking.

`COc1ccc2c(c1)[C@@]1(C)CCN(C)C(C2)C1N1CCC(N)CC1` (stereo partly drawn) [Compound 70, 1-((6R)-8-methoxy-3,6-dimethyl-1,2,3,4,5,6-hexahydro-2,6-methanobenzo[d]azocin-11-yl)piperidin-4-amine] came in with a 50% effective concentration (EC50) on μ-opioid receptor [1] of 9380 ± 501 nM. Further, the Emax at μ-opioid receptor [1] (read-out: GTPγS μ Emax) was 24.7 ± 0.88%.
Consider `C[C@]12CCN(CC3CC3)[C@H](Cc3ccc(O)cc31)[C@@H]2NCCc1ccc(S(N)(=O)=O)cc1` [Compound 96, 4-(2-(((2R,6S,11R)-3-(cyclopropylmethyl)-8-hydroxy-6-methyl-1,2,3,4,5,6-hexahydro-2,6-methanobenzo[d]azocin-11-yl)amino)ethyl)benzenesulfonamide], for which the results for the half-maximal effective concentration (EC50) on μ-opioid receptor [2] (setting [3]) and on κ opioid receptor (setting [5]) were 0.00601 ± 0.00051 µM and 0.00641 ± 0.00167 µM, respectively. In addition, the Emax at μ-opioid receptor [2] (setting [4]) was found to be 32.3 ± 0.88%.
Consider `C[C@]12CCN(CC3CC3)[C@H](Cc3ccc(O)cc31)[C@H]2NCCc1ccc(S(N)(=O)=O)cc1` [Compound 97, 4-(2-(((2R,6S,11S)-3-(cyclopropylmethyl)-8-hydroxy-6-methyl-1,2,3,4,5,6-hexahydro-2,6-methanobenzo[d]azocin-11-yl)amino)ethyl)benzenesulfonamide], for which the concentration for a half-maximal effect (EC50) on μ-opioid receptor [2] (setting [6]) and at κ opioid receptor (setting [7]) was above 20 µM each time. Further, the Emax was found to be 2.5% on μ-opioid receptor [2] (setting [4]) and 0% at κ opioid receptor (setting [8]).
On to `CN1CC[C@@]2(C)c3cc(O)ccc3C[C@@H]1[C@@H]2NCCc1ccc(Cl)c(Cl)c1` [Compound 98, (2R,6S,11R)-11-((3,4-dichlorophenethyl)amino)-3,6-dimethyl-1,2,3,4,5,6-hexahydro-2,6-methanobenzo[d]azocin-8-ol], for which the results for the concentration for a half-maximal effect (EC50) at μ-opioid receptor [2] (setting [3]) and at κ opioid receptor (setting [5]) were 0.0003 ± 2.7e-05 µM and 0.0286 ± 0.00321 µM, respectively. Moreover, the Emax on μ-opioid receptor [2] (setting [4]) was determined as 104 ± 3.76%; on κ opioid receptor (setting [8]), 95.3 ± 3.84%.
For `CN1CC[C@@]2(C)c3cc(O)ccc3C[C@@H]1[C@H]2NCCc1ccc(Cl)c(Cl)c1` [Compound 99, (2R,6S,11S)-11-((3,4-dichlorophenethyl)amino)-3,6-dimethyl-1,2,3,4,5,6-hexahydro-2,6-methanobenzo[d]azocin-8-ol] the same measures were 0.00013 ± 1e-05 µM, 0.00144 ± 5.3e-05 µM, 71 ± 2% and 72.3 ± 4.67%.
Take `COc1ccc(CCN[C@H]2[C@H]3Cc4ccc(O)cc4[C@]2(C)CCN3C)cc1` [Compound 100, (2R,6S,11R)-11-((4-methoxyphenethyl)amino)-3,6-dimethyl-1,2,3,4,5,6-hexahydro-2,6-methanobenzo[d]azocin-8-ol]: the 50% effective concentration (EC50) was found to be 0.04 ± 0.00325 µM at μ-opioid receptor [2] (setting [3]) and 1.76 ± 0.364 µM at κ opioid receptor (setting [5]). The Emax on μ-opioid receptor [2] (setting [4]) turned out to be 102 ± 1.45%; at κ opioid receptor (setting [8]) it was 45 ± 2.08%.
Consider `CN1CC[C@@]2(C)c3cc(O)ccc3C[C@@H]1[C@@H]2NCCc1ccc(F)cc1` [Compound 101, (2R,6S,11R)-11-((4-fluorophenethyl)amino)-3,6-dimethyl-1,2,3,4,5,6-hexahydro-2,6-methanobenzo[d]azocin-8-ol], for which the EC50 on μ-opioid receptor [2] (GTPγS μ EC50, U-2 OS cells) was found to be 0.00373 ± 0.00021 µM; at κ opioid receptor, 1.08 ± 0.113 µM. The Emax on κ opioid receptor (setting [8]) came out at 66.7 ± 1.2%.
Take `C[C@]12CCN(CC3CC3)[C@H](Cc3ccc(O)cc31)[C@H]2NCC1CCNCC1` [Compound 102, (2R,6S,11S)-3-(cyclopropylmethyl)-6-methyl-11-((piperidin-4-ylmethyl)amino)-1,2,3,4,5,6-hexahydro-2,6-methanobenzo[d]azocin-8-ol]: the half-maximal effective concentration (EC50) at μ-opioid receptor [2] (setting [6]) and at κ opioid receptor (setting [7]) was above 20 µM in each case. Besides, the Emax was 2.5% at μ-opioid receptor [2] (setting [4]) and -1% on κ opioid receptor (setting [8]).
As to `CN1CC[C@@]2(C)c3cc(O)ccc3C[C@@H]1[C@H]2NCCc1ccncc1` [Compound 103, (2R,6S,11S)-3,6-dimethyl-11-((2-(pyridin-4-yl)ethyl)amino)-1,2,3,4,5,6-hexahydro-2,6-methanobenzo[d]azocin-8-ol], the EC50 at μ-opioid receptor [2] (setting [3]) turned out to be 0.117 ± 0.00282 µM; on κ opioid receptor (setting [5]), 0.287 ± 0.062 µM. Further, the Emax was 77.5 ± 1.26% on μ-opioid receptor [2] (setting [4]) and 83 ± 8.02% at κ opioid receptor (setting [8]).
Take `CN1CC[C@@]2(C)c3cc(O)ccc3C[C@@H]1[C@@H]2NCCc1cccs1` [Compound 104, (2R,6S,11R)-3,6-dimethyl-11-((2-(thiophen-2-yl)ethyl)amino)-1,2,3,4,5,6-hexahydro-2,6-methanobenzo[d]azocin-8-ol]: the EC50 at μ-opioid receptor [2] (setting [3]) is 0.0513 ± 0.00526 µM; on κ opioid receptor (setting [5]) it was 1.26 ± 0.229 µM. In addition, the Emax at μ-opioid receptor [2] (setting [4]) amounted to 105.3 ± 0.88%; on κ opioid receptor (setting [8]), 79.7 ± 5.9%.
On to `CN1CC[C@@]2(C)c3cc(O)ccc3C[C@@H]1[C@H]2NCCc1ccc(C(C)(C)C)cc1` [Compound 105, (2R,6S,11S)-11-((4-(tert-butyl)phenethyl)amino)-3,6-dimethyl-1,2,3,4,5,6-hexahydro-2,6-methanobenzo[d]azocin-8-ol], for which the EC50 on μ-opioid receptor [2] (setting [3]) is 0.00022 ± 5.2e-05 µM; at κ opioid receptor (setting [7]), above 20 µM. Moreover, the Emax turned out to be 32.7 ± 1.76% at μ-opioid receptor [2] (setting [4]) and 1% on κ opioid receptor (setting [8]).
For the compound `CN1CC[C@@]2(C)c3cc(O)ccc3C[C@@H]1[C@H]2NCC1CCN(C(=O)OC(C)(C)C)CC1` [Compound 106, tert-butyl 4-((((2R,6S,11S)-8-hydroxy-3,6-dimethyl-1,2,3,4,5,6-hexahydro-2,6-methanobenzo[d]azocin-11-yl)amino)methyl)piperidine-1-carboxylate], the EC50 on μ-opioid receptor [2] (GTPγS μ EC50, U-2 OS cells, bound in μM) was above 20 µM; at κ opioid receptor, above 20 µM. For the same compound, the Emax amounted to 2.5% on μ-opioid receptor [2] (read-out: GTPγS μ Emax, U-2 OS cells) and 1% on κ opioid receptor.
In the case of `CN1CC[C@@]2(C)c3cc(O)ccc3C[C@@H]1[C@@H]2NCC1CCN(C(=O)OC(C)(C)C)CC1` [Compound 107, tert-butyl 4-((((2R,6S,11R)-8-hydroxy-3,6-dimethyl-1,2,3,4,5,6-hexahydro-2,6-methanobenzo[d]azocin-11-yl)amino)methyl)piperidine-1-carboxylate], the results for the EC50 at μ-opioid receptor [2] (setting [3]) and at κ opioid receptor (setting [7]) were 0.0462 ± 0.00035 µM and above 20 µM, respectively. Also, the “GTPγS μ Emax” value on μ-opioid receptor [2] (U-2 OS cells) is listed as 58.30 ± 0.33%. The Emax on κ opioid receptor (setting [8]) was 1%.
Take `CN1CC[C@@]2(C)c3cc(O)ccc3C[C@@H]1[C@@H]2N(C)CC1CCN(C(=O)OC(C)(C)C)CC1` [Compound 108, tert-butyl 4-((((2R,6S,11R)-8-hydroxy-3,6-dimethyl-1,2,3,4,5,6-hexahydro-2,6-methanobenzo[d]azocin-11-yl)(methyl)amino)methyl)piperidine-1-carboxylate]: the half-maximal effective concentration (EC50) at μ-opioid receptor [2] (setting [3]) came out at 0.00039 ± 0.00011 µM; on κ opioid receptor (setting [5]), 0.00327 ± 0.00069 µM. For the same compound, the “GTPγS μ Emax” value on μ-opioid receptor [2] (U-2 OS cells) was 80.80 ± 2.50%. Also, at κ opioid receptor (setting [8]), the Emax was found to be 18.8 ± 1.25%.
As for `CN1CC[C@@]2(C)c3cc(O)ccc3C[C@@H]1[C@H]2N(C)CCc1ccc(S(N)(=O)=O)cc1` [Compound 109, 4-(2-(((2R,6S,11S)-8-hydroxy-3,6-dimethyl-1,2,3,4,5,6-hexahydro-2,6-methanobenzo[d]azocin-11-yl)(methyl)amino)ethyl)benzenesulfonamide], the EC50 on μ-opioid receptor [2] (setting [3]) amounted to 0.029 ± 0.00136 µM; at κ opioid receptor (setting [5]), 0.192 ± 0.0416 µM. Moreover, the figures for the Emax at μ-opioid receptor [2] (setting [4]) and on κ opioid receptor (setting [8]) were 100 ± 3.18% and 36.7 ± 0.67%, respectively.
For `CN1CC[C@@]2(C)c3cc(O)ccc3C[C@@H]1[C@H]2NCCc1c[nH]c2ccccc12` [Compound 110, (2R,6S,11S)-11-((2-(1H-indol-3-yl)ethyl)amino)-3,6-dimethyl-1,2,3,4,5,6-hexahydro-2,6-methanobenzo[d]azocin-8-ol] the same measures were 0.0116 ± 0.00155 µM, 0.0254 ± 0.00338 µM, 92.3 ± 2.03% and 37.7 ± 2.03%.
